According to patent US20250018014A1, “METHOD FOR TREATING AND/OR PREVENTING REGNASE-1-RELATED DISEASE” (OSAKA UNIVERSITY, priority 2018, published 2025):
Where two headings read alike, the source gives them in different places. Blank lines part the entries; values can stand above or below the compound they belong to. Residues, ends and D or L forms follow the SMILES beside them.

Columns and labels:
[1] = target: T1, ΔCTD_Reg1 (amino acids 1 to 546 of human Regnase-1) phosphorylation by IKKβ (Homo sapiens, UniProt Q5D1E8); experiment: Regnase-1 phosphorylation inhibition by compounds (AlphaScreen), IKKβ, CTD-deficient Regnase-1; format: biochemical
T1 construct: made in house; host or cells: Expi293 cells
T1 sequence (Q5D1E8 1-546): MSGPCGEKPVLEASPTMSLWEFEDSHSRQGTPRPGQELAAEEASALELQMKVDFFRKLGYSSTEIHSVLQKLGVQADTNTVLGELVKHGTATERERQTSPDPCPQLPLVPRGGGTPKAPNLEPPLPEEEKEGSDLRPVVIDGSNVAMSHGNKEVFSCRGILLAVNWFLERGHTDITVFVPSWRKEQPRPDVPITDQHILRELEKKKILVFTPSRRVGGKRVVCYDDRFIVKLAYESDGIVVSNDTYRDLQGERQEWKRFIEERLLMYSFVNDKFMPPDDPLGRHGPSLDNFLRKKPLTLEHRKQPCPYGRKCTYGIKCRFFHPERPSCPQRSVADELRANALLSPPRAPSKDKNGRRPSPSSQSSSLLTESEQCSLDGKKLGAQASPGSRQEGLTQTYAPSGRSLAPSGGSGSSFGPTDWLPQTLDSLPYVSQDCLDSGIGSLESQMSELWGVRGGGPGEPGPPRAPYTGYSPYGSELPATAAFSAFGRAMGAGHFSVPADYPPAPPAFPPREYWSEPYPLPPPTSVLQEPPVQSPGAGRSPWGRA
Method: Among the full-length human Regnase-1 sequence, the 1st to 546th amino acid sequence was prepared and made into a construct having a FLAG tag on the N-terminal side and a biotin ligase BirA recognition sequence on the C-terminal side (herein, a Regnase-1 lacking the C-terminal domain of Regnase-1 (amino acids 547 to 599 in the case of SEQ ID NO: 2) is referred to as “ΔCTD_Reg1”. “ΔCTD_Reg1” is different from “Regnase-1ΔCTD”, which is a C-terminal domain deletion variant resulting from a frameshift mutation caused by a 1 bp deletion at codon 517, as prepared in Example 13). In addition, the sequence from amino acids 301 to 599 of the full-length human Regnase-1 sequence was designated as C-terminal Regnase-1, and a construct having a FLAG tag on the N-terminal side and a recognition sequence for biotin ligase BirA on the C-terminal side was prepared (Reg1_301-599). The above-mentioned Regnase-1 was expressed in mammalian Expi293 cells, purified with FLAG M2 agarose, and isolated by gel filtration chromatography. When biotinylation was required, methods of nonpatent documents (BMC biotechnology, 2008,8,41; and Protein Science, 1999,8,921-929) were used.
Using Kinase assay buffer III (manufactured by SignalChem) supplemented with 2 mM DTT, 100 μM sodium vanadate, and 2 mM manganese chloride, kinase (IKKβ (manufactured by SignalChem) or TBK1 (manufactured by SignalChem)) and Regnase-1 were reacted in the presence of 10 μM ATP at room temperature for 2 hours to perform a phosphorylation reaction.
Phosphorylated Regnase-1 was detected by the AlphaScreen system. After each of the above-mentioned phosphorylated Regnase-1 antibodies was added and reacted at room temperature for one hour, anti-FLAG AlphaLISA Acceptor Beads (manufactured by PerkinElmer) and Protein A AlphaScreen Donor Beads (manufactured by PerkinElmer) were added, and EnVision (manufactured by PerkinElmer) was used to measure the excited luminescence. As a result, phosphorylated Regnase-1 produced by the phosphorylation reaction by kinase was specifically detected, and signals were confirmed to be enhanced in a manner dependent on Regnase-1 and kinase concentrations (FIG. 24).
After mixing 2 nM of the above-mentioned Regnase-1 and the compound, phosphorylated Regnase-1 produced by the phosphorylation reaction was detected by the AlphaScreen system. As the results, the inhibition rate was calculated from the signals obtained when adding the compound at each concentration, by defining the signal obtained with Regnase-1 alone to be 100% inhibition rate, and the signal obtained when the same amount of solvent (DMSO) is added in place of the compound as 0% inhibition rate. The 50% inhibition concentration (μM) was calculated from the obtained dose response curve (Table 11).

[2] = target: T2, binding between TBK1 and full-length Regnase-1 (FL_Reg1) (Homo sapiens, UniProt Q5D1E8); experiment: Inhibition of kinase-Regnase-1 binding by the compounds (AlphaScreen), TBK1
T2 construct: made in house; host or cells: Expi293 cells
T2 sequence (Q5D1E8 1-599): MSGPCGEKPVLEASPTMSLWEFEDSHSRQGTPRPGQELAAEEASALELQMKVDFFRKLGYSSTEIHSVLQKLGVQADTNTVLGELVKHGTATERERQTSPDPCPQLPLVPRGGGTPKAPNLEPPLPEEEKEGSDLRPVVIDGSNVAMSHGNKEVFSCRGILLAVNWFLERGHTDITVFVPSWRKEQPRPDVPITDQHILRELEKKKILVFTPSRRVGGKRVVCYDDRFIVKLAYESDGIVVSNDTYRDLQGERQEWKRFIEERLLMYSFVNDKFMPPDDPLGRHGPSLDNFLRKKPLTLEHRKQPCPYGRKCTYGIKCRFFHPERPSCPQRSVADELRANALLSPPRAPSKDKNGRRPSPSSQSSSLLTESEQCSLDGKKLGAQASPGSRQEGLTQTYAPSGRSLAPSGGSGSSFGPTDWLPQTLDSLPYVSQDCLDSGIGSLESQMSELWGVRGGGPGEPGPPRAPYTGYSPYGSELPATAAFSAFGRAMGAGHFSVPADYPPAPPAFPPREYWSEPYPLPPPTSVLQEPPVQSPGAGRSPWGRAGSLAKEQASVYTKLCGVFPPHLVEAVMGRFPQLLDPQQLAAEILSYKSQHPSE
In short: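 FLAG-tagged, biotin-acceptor-tagged full-length human Regnase-1 was expressed in Expi293 cells. It was mixed at 2.5 nM with compound, then 2.5 nM IKKβ or TBK1 was added for 2 h at room temperature. Binding was read with anti-FLAG acceptor and glutathione donor beads; IC50 came from dose-response inhibition relative to Regnase-1 alone and DMSO.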

[3] = Table 11, 2 nM Regnase-1, AlphaScreen, read-out: 50% inhibition concentration, Regnase-1 phosphorylation, ΔCTD_Reg1, IKKβ
[4] = Table 12, 2.5 nM Regnase-1, 2.5 nM TBK1, AlphaScreen, read-out: 50% inhibition concentration, binding between Regnase-1 and TBK1, FL_Reg1
[5] = Table 14, phosphorylation by IKKβ, read-out: Phosphorylation inhibition ΔCTD_Reg1, 50% inhibition concentration (IKKβ)
[6] = Table 13, binding between TBK1 and Regnase-1, read-out: Binding inhibition FL_Reg1, 50% inhibition concentration (TBK1)

- IC50 [1, 3]: 20.3 µM
- IC50 [2, 4]: 19.2 µM
Structure (SMILES): CC[C@H](C)[C@@H]1NC(=O)[C@H](CCCCN)NC(=O)[C@H](Cc2ccccc2)NC(=O)[C@H](Cc2c[nH]c3ccccc23)NC(=O)[C@H](CO)NC(=O)[C@H](CO)NC(=O)[C@H](CC(N)=O)NC(=O)[C@@H]2CCCN2C(=O)[C@@H](C)N(C)C(=O)C[C@@H](C(=O)N2CCCC2)NC(=O)[C@H](Cc2c[nH]c3ccccc23)NC1=O [PP6] (HELM PEPTIDE1{[C[C@H](C(=O)[*:2])N(C)[*:1]].P.N.S.S.W.F.K.I.W.D.[C1CCN([*:1])C1]}$PEPTIDE1,PEPTIDE1,1:R1-11:R3$$$V2.0)

- IC50 [1, 3]: 14 µM
- IC50 [2, 4]: 15.5 µM
Structure (SMILES): CC[C@H](C)[C@@H]1NC(=O)[C@H](CC(N)=O)NC(=O)[C@H](Cc2ccc(O)cc2)NC(=O)[C@H](Cc2c[nH]c3ccccc23)NC(=O)[C@H](CO)NC(=O)[C@H](CC(N)=O)NC(=O)[C@H](C)NC(=O)[C@H](Cc2ccc(O)cc2)NC(=O)CNC(=O)[C@H](C)N(C)C(=O)C[C@@H](C(=O)N2CCCC2)NC(=O)[C@H](Cc2c[nH]c3ccccc23)NC1=O [PP2] (HELM PEPTIDE1{[meA].G.Y.A.N.S.W.Y.N.I.W.D.[C1CCN([*:1])C1]}$PEPTIDE1,PEPTIDE1,1:R1-12:R3$$$V2.0)

- IC50 [1, 3]: 20.4 µM
- IC50 [2, 4]: 11.5 µM
Structure (SMILES): CC[C@H](C)[C@@H]1NC(=O)[C@H](CC(N)=O)NC(=O)[C@H](Cc2ccc(O)cc2)NC(=O)[C@H](Cc2c[nH]c3ccccc23)NC(=O)[C@H](C)NC(=O)[C@H](CC(N)=O)NC(=O)[C@H](CO)NC(=O)[C@H](Cc2c[nH]cn2)NC(=O)[C@H](C)N(C)C(=O)C[C@@H](C(=O)N2CCCC2)NC(=O)[C@H](Cc2c[nH]c3ccccc23)NC1=O [PP5] (HELM PEPTIDE1{[meA].H.S.N.A.W.Y.N.I.W.D.[C1CCN([*:1])C1]}$PEPTIDE1,PEPTIDE1,1:R1-11:R3$$$V2.0)

- IC50 [1, 5]: 31 µM
- IC50 [2, 6]: 13.7 µM
Structure (SMILES): CC[C@H](C)[C@@H]1NC(=O)[C@H](CC(N)=O)NC(=O)[C@H]([C@@H](C)CC)NC(=O)[C@H](Cc2ccc(O)cc2)NC(=O)[C@H](Cc2c[nH]c3ccccc23)NC(=O)[C@H](CO)NC(=O)[C@H](CC(N)=O)NC(=O)[C@H](C)N(C)C(=O)C[C@@H](C(=O)N2CCCC2)NC(=O)[C@H](Cc2c[nH]cn2)NC(=O)CNC(=O)[C@H](Cc2c[nH]c3ccccc23)NC1=O [PP15] (HELM PEPTIDE1{[meA].N.S.W.Y.I.N.I.W.G.H.D.[C1CCN([*:1])C1]}$PEPTIDE1,PEPTIDE1,1:R1-12:R3$$$V2.0)

Second part, the compound before the results:

Structure (SMILES): CC[C@H](C)[C@@H]1NC(=O)[C@H](CC(=O)O)NC(=O)[C@H](C)N(C)C(=O)C[C@@H](C(=O)N2CCCC2)NC(=O)[C@H](Cc2ccc(O)cc2)NC(=O)[C@H](CC(=O)O)NC(=O)[C@H](Cc2c[nH]c3ccccc23)NC(=O)[C@H](Cc2ccc(O)cc2)NC(=O)[C@H](CC(=O)O)NC(=O)[C@H](Cc2ccccc2)NC(=O)[C@H](Cc2c[nH]c3ccccc23)NC1=O [PP18] (HELM PEPTIDE1{[meA].D.I.W.F.D.Y.W.D.Y.D.[C1CCN([*:1])C1]}$PEPTIDE1,PEPTIDE1,1:R1-11:R3$$$V2.0)
- IC50 [1, 5]: 0.2 µM
- IC50 [2, 6]: < 0.06 µM

Structure (SMILES): CC[C@H](C)[C@@H]1NC(=O)[C@H](Cc2c[nH]c3ccccc23)NC(=O)[C@@H](Cc2ccccc2)NC(=O)[C@H](CCCCN)NC(=O)[C@H](C)N(C)C(=O)C[C@@H](C(=O)N2CCCC2)NC(=O)[C@H](CCC(=O)O)NC(=O)[C@H](Cc2ccccc2)NC(=O)[C@H](CO)NC(=O)[C@H](Cc2c[nH]cn2)NC(=O)[C@H](Cc2c[nH]cn2)NC1=O [PP20] (HELM PEPTIDE1{[meA].K.[dF].W.I.H.H.S.F.E.D.[C1CCN([*:1])C1]}$PEPTIDE1,PEPTIDE1,1:R1-11:R3$$$V2.0)
- IC50 [1, 5]: > 62.1 µM
- IC50 [2, 6]: 47.6 µM

Structure (SMILES): CC[C@H](C)[C@@H]1NC(=O)[C@H](Cc2c[nH]c3ccccc23)NC(=O)[C@H](CCCNC(=N)N)NC(=O)[C@H](Cc2ccccc2)NC(=O)[C@H](CCC(N)=O)NC(=O)[C@H](C)NC(=O)[C@H](Cc2ccccc2)NC(=O)[C@H](CCCCN)NC(=O)[C@H](C)N(C)C(=O)C[C@@H](C(=O)N2CCCC2)NC(=O)[C@@H]2CCCN2C(=O)[C@H](Cc2ccc(O)cc2)NC1=O [PP11] (HELM PEPTIDE1{[meA].K.F.A.Q.F.R.W.I.Y.P.D.[C1CCN([*:1])C1]}$PEPTIDE1,PEPTIDE1,1:R1-12:R3$$$V2.0)
- IC50 [1, 5]: > 62.1 µM
- IC50 [2, 6]: 60.9 µM

Structure (SMILES): CC[C@H](C)[C@@H]1NC(=O)[C@H](CCCCN)NC(=O)[C@H](Cc2ccc(O)cc2)NC(=O)[C@H](Cc2c[nH]c3ccccc23)NC(=O)[C@H](CO)NC(=O)[C@H](CO)NC(=O)[C@H]([C@@H](C)O)NC(=O)[C@@H]2CCCN2C(=O)[C@@H](C)N(C)C(=O)C[C@@H](C(=O)N2CCCC2)NC(=O)[C@H](Cc2c[nH]c3ccccc23)NC1=O [PP23] (HELM PEPTIDE1{[C[C@H](C(=O)[*:2])N(C)[*:1]].P.T.S.S.W.Y.K.I.W.D.[C1CCN([*:1])C1]}$PEPTIDE1,PEPTIDE1,1:R1-11:R3$$$V2.0)
- IC50 [1, 5]: > 62.1 µM
- IC50 [2, 6]: 9.2 µM

Structure (SMILES): CC[C@H](C)[C@@H]1NC(=O)[C@H](Cc2ccc(O)cc2)NC(=O)[C@H](C)N(C)C(=O)C[C@@H](C(=O)N2CCCC2)NC(=O)[C@H](CC(C)C)NC(=O)[C@H](CC(=O)O)NC(=O)CNC(=O)[C@H](Cc2ccccc2)NC(=O)[C@H](Cc2ccccc2)NC(=O)[C@H](CC(=O)O)NC(=O)[C@H](Cc2c[nH]c3ccccc23)NC1=O [PP4] (HELM PEPTIDE1{[meA].Y.I.W.D.F.F.G.D.L.D.[C1CCN([*:1])C1]}$PEPTIDE1,PEPTIDE1,1:R1-11:R3$$$V2.0)
- IC50 [1, 3]: 8.3 µM
- IC50 [2, 4]: 24.4 µM
